Reference: patent US9738655B2, “Tetrahydroisoquinolines containing substituted azoles as factor XIa inhibitors” (BRISTOL-MYERS SQUIBB COMPANY, priority 2013, dated 2017)
Where a name gives a salt, the structure may show the parent alone.

Key:
[1] = target: purified human Factor XIa (Homo sapiens (Human), UniProt P03951); test: Factor XIa enzyme inhibition assay (chromogenic substrate S-2366); details: read-out: Factor XIa Ki; measured at 25° C.
[2] = target: purified human plasma kallikrein (Homo sapiens (Human), UniProt P03952); test: Plasma kallikrein enzyme inhibition assay (chromogenic substrate S-2302); assay type: biochemical
Method: The effectiveness of compounds of the present invention as inhibitors of the coagulation Factors XIa, VIIa, IXa, Xa, XIIa, plasma kallikrein or thrombin, can be determined using a relevant purified serine protease, respectively, and an appropriate synthetic substrate. The rate of hydrolysis of the chromogenic or fluorogenic substrate by the relevant serine protease was measured both in the absence and presence of compounds of the present invention. […] A decrease in the rate of absorbance or fluorescence change in the presence of inhibitor is indicative of enzyme inhibition. […] The results of this assay are expressed as the inhibitory constant, Ki.
Values of Ki were determined by allowing the protease to react with the substrate in the presence of the inhibitor.
The following relationships were used to calculate Ki values: (Vmax*S)/(Km+S); (vo−vs)/vs=I/(Ki(1+S/Km)) for a competitive inhibitor with one binding site; or vs/vo=A+((B−A)/1+((IC50/(I)n))); and Ki−IC50/((1+S/Km) for a competitive inhibitor where:

[3] = measured at 25° C. (no asterisk)

Sequence of purified human Factor XIa (P03951 388-625): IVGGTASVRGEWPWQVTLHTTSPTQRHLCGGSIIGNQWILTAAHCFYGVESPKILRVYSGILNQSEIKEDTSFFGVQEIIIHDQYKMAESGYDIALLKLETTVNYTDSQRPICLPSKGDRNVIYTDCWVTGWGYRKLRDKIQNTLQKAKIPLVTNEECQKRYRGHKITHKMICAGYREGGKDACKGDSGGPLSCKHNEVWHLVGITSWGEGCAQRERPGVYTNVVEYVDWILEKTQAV
Sequence of purified human Factor XIa (P03951 19-387 partner): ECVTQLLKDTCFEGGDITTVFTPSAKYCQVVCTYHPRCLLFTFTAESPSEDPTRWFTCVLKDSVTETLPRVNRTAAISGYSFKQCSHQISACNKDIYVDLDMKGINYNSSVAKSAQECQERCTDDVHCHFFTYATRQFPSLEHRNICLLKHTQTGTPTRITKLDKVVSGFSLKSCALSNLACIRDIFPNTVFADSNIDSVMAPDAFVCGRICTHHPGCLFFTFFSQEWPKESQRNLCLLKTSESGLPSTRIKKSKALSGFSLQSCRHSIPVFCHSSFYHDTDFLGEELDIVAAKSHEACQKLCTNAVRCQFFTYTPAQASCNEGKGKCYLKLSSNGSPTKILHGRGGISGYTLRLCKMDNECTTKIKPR
Sequence of purified human plasma kallikrein (P03952 391-638): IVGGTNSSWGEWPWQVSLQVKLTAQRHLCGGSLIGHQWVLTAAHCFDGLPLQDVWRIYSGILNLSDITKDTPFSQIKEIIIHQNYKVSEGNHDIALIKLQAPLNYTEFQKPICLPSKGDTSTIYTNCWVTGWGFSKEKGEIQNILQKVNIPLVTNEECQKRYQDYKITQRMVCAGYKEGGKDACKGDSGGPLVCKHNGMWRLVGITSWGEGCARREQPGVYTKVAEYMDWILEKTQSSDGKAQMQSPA
Sequence of purified human plasma kallikrein (P03952 20-390 partner): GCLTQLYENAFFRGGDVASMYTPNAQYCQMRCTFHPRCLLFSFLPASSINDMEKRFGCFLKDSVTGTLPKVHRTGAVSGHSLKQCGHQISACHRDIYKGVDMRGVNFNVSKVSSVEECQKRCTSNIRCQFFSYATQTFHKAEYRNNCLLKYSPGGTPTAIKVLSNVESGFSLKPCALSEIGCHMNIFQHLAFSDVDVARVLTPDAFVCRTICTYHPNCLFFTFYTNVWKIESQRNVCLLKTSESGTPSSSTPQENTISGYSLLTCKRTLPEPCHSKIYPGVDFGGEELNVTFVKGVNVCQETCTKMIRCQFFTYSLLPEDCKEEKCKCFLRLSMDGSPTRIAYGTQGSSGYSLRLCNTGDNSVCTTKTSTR

With `CN(C)C(=O)C1CCN(c2cccc3c2CCN(C(=O)c2cnn(-c4cccc(Cl)c4F)c2)C3C(=O)Nc2ccc(C(=O)O)cc2)CC1` (centres unmarked) [Example 59, 4-(2-(1-(3-chloro-2-fluorophenyl)-1H-pyrazole-4-carbonyl)-5-(4-(dimethylcarbamoyl)piperidin-1-yl)-1,2,3,4-tetrahydroisoquinoline-1-carboxamido)benzoic acid, TFA salt] the Ki [1] was < 5 nM and the Ki [2, 3] was 10.1 nM.
`CC(C)c1nnc2n1CCN(c1cccc3c1CCN(C(=O)c1cn(-c4cccc(Cl)c4F)nn1)C3C(=O)Nc1ccc(C(=O)O)cc1)C2` (centres unmarked) [Example 64, 4-(2-(1-(3-chloro-2-fluorophenyl)-1H-1,2,3-triazole-4-carbonyl)-5-(3-isopropyl-5,6-dihydro-[1,2,4]triazolo[4,3-a]pyrazin-7(8H)-yl)-1,2,3,4-tetrahydroisoquinoline-1-carboxamido)benzoic acid, TFA salt] was tested, and the Ki [1] was < 5 nM and the Ki [2, 3] was 4.7 nM.
`CC(C)c1nnc2n1CCN(c1cccc3c1CCN(C(=O)c1cn(-c4cccc(Cl)c4F)nn1)[C@H]3C(=O)Nc1ccc(C(=O)O)cc1)C2` [Example 65, (R)-4-(2-(1-(3-chloro-2-fluorophenyl)-1H-1,2,3-triazole-4-carbonyl)-5-(3-isopropyl-5,6-dihydro-[1,2,4]triazolo[4,3-a]pyrazin-7(8H)-yl)-1,2,3,4-tetrahydroisoquinoline-1-carboximido)benzoic acid, TFA salt] was tested, and the Ki [1] was 18.9 nM and the Ki [2, 3] was 260 nM.
With `CC(C)c1nnc2n1CCN(c1cccc3c1CCN(C(=O)c1cn(-c4cccc(Cl)c4F)nn1)[C@@H]3C(=O)Nc1ccc(C(=O)O)cc1)C2` [Example 66, (S)-4-(2-(1-(3-chloro-2-fluorophenyl)-1H-1,2,3-triazole-4-carbonyl)-5-(3-isopropyl-5,6-dihydro-[1,2,4]triazolo[4,3-a]pyrazin-7(8H)-yl)-1,2,3,4-tetrahydroisoquinoline-1-carboxamido)benzoic acid, TFA salt] the Ki [1] was < 5 nM and the Ki [2, 3] was 2.57 nM.
With `CC1(O)CCN(c2cccc3c2CCN(C(=O)c2cn(-c4cccc(Cl)c4F)nn2)C3C(=O)Nc2ccc(C(=O)O)cc2)CC1` (centres unmarked) [Example 67, 4-(2-(1-(3-chloro-2-fluorophenyl)-1H-1,2,3-triazole-4-carbonyl)-5-(4-hydroxy-4-methylpiperidin-1-yl)-1,2,3,4-tetrahydroisoquinoline-1-carboxamido)benzoic acid, TFA salt] the Ki [1] was < 5 nM and the Ki [2, 3] was 7.17 nM.
For `O=C(O)c1ccc(NC(=O)C2c3cccc(N4CCOCC4=O)c3CCN2C(=O)c2cn(-c3cccc(Cl)c3F)nn2)cc1` (centres unmarked) [Example 69, 4-(2-(1-(3-chloro-2-fluorophenyl)-1H-1,2,3-triazole-4-carbonyl)-5-(3-oxomorpholino)-1,2,3,4-tetrahydroisoquinoline-1-carboxamido)benzoic acid], the Ki [1] was < 5 nM and the Ki [2, 3] was 9.92 nM.
In the case of `COC1CCN(c2cccc3c2CCN(C(=O)C2CC(=O)N(c4c(F)ccc(Cl)c4F)C2)C3C(=O)Nc2ccc(C(=O)O)cc2)CC1` (centres unmarked) [Example 71, 4-(2-(1-(3-chloro-2,6-difluorophenyl)-5-oxopyrrolidine-3-carbonyl)-5-(4-methoxypiperidin-1-yl)-1,2,3,4-tetrahydroisoquinoline-1-carboxamido)benzoic acid, TFA salt], the Ki [1] is reported as 913 nM and the Ki ([2]; measured at 37° C. (*)) is reported as > 6000 nM.
`O=C(O)c1ccc(NC(=O)C2c3cccc(N4CCC(N5CCCC5=O)CC4)c3CCN2C(=O)c2cn(-c3cccc(Cl)c3F)nn2)cc1` (centres unmarked) [Example 72, 4-(2-(1-(3-chloro-2-fluorophenyl)-1H-1,2,3-triazole-4-carbonyl)-5-(4-(2-oxopyrrolidin-1-yl)piperidin-1-yl)-1,2,3,4-tetrahydroisoquinoline-1-carboxamido)benzoic acid, TFA salt] was tested, and the Ki [1] was < 5 nM and the Ki [2, 3] was 13.8 nM.
`O=C(O)c1ccc(NC(=O)C2c3cccc(N4CCC(N5CCCC5=O)CC4)c3CCN2C(=O)c2cnn(-c3cccc(Cl)c3F)c2)cc1` (centres unmarked) [Example 74, 4-(2-(1-(3-chloro-2-fluorophenyl)-1H-pyrazole-4-carbonyl)-5-(4-(2-oxopyrrolidin-1-yl)piperidin-1-yl)-1,2,3,4-tetrahydroisoquinoline-1-carboxamido)benzoic acid, TFA salt] was tested, and the Ki [1] was < 5 nM and the Ki [2, 3] was 27.6 nM.
For `O=C1CCC2(CCN(c3cccc4c3CCN(C(=O)c3cnn(-c5cccc(Cl)c5F)c3)C4C(=O)Nc3ccc(C(=O)O)cc3)CC2)O1` (centres unmarked) [Example 75, 4-(2-(1-(3-chloro-2-fluorophenyl)-1H-pyrazole-4-carbonyl)-5-(2-oxo-1-oxa-8-azaspiro[4.5]-decan-8-yl)-1,2,3,4-tetrahydroisoquinoline-1-carboxamido)benzoic acid, TFA salt], the Ki [1] was < 5 nM and the Ki [2, 3] was 25.8 nM.
For `O=C1CCC2(CCN(c3cccc4c3CCN(C(=O)c3cn(-c5cccc(Cl)c5F)nn3)C4C(=O)Nc3ccc(C(=O)O)cc3)CC2)O1` (centres unmarked) [Example 76, 4-(2-(1-(3-chloro-2-fluorophenyl)-1H-1,2,3-triazole-4-carbonyl)-5-(2-oxo-1-oxa-8-azaspiro[4.5]decan-8-yl)-1,2,3,4-tetrahydroisoquinoline-1-carboximido)benzoic acid, TFA], the Ki [1] was < 5 nM and the Ki [2, 3] was 15.3 nM.
For `O=C1CCC2(CCN(c3cccc4c3CCN(C(=O)c3cn(-c5cccc(Cl)c5F)cn3)C4C(=O)Nc3ccc(C(=O)O)cc3)CC2)O1` (centres unmarked) [Example 77, 4-(2-(1-(3-chloro-2-fluorophenyl)-1H-imidazole-4-carbonyl)-5-(2-oxo-1-oxa-8-azaspiro[4.5]decan-8-yl)-1,2,3,4-tetrahydroisoquinoline-1-carboxamido)benzoic acid, TFA salt], the Ki [1] was < 5 nM and the Ki [2, 3] was 7.96 nM.
Work on `O=C(O)c1ccc(NC(=O)C2c3cccc(N4CCCCC4)c3CCN2C(=O)c2cn(-c3cccc(Cl)c3F)nn2)cc1` (centres unmarked) [Example 78, 4-(2-(1-(3-chloro-2-fluorophenyl)-1H-1,2,3-triazole-4-carbonyl)-5-(piperidin-1-yl)-1,2,3,4-tetrahydroisoquinoline-1-carboxamido)benzoic acid, TFA salt] yielded a Ki [1] of 9.16 nM and a Ki [2, 3] of 36.1 nM.
`CN1CCN(c2cccc3c2CCN(C(=O)c2cn(-c4cccc(Cl)c4F)nn2)[C@H]3C(=O)Nc2ccc(C(=O)O)cc2)C(=O)C1` [Example 79, (R)-4-(2-(1-(3-chloro-2-fluorophenyl)-1H-1,2,3-triazole-4-carbonyl)-5-(4-methyl-2-oxopiperazin-1-yl)-1,2,3,4-tetrahydroisoquinoline-1-carboxamido)benzoic acid, TFA salt] was tested, and the Ki [1] was 114 nM and the Ki [2, 3] was 719 nM.
With `CN1CCN(c2cccc3c2CCN(C(=O)c2cn(-c4cccc(Cl)c4F)nn2)[C@@H]3C(=O)Nc2ccc(C(=O)O)cc2)C(=O)C1` [Example 80, (S)-4-(2-(1-(3-chloro-2-fluorophenyl)-1H-1,2,3-triazole-4-carbonyl)-5-(4-methyl-2-oxopiprazin-1-yl)-1,2,3,4-tetrahydroisoquinoline-1-carboxamido)benzoic acid, HCl] the Ki [1] was < 5 nM and the Ki [2, 3] was 6.37 nM.
`O=C(O)c1ccc(NC(=O)C2c3cccc(N4CCCCC4=O)c3CCN2C(=O)c2cn(-c3cccc(Cl)c3F)nn2)cc1` (centres unmarked) [Example 81, 4-(2-(1-(3-chloro-2-fluorophenyl)-1H-1,2,3-triazole-4-carbonyl)-5-(2-oxopiperidin-1-yl)-1,2,3,4-tetrahydroisoquinoline-1-carboxamido)benzoic acid] was tested, and the Ki [1] was < 5 nM and the Ki [2, 3] was 20.7 nM.
With `COC1CN(c2cccc3c2CCN(C(=O)c2cn(-c4cccc(Cl)c4F)nn2)C3C(=O)Nc2ccc(C(=O)O)cc2)C1` (centres unmarked) [Example 83, 4-(2-(1-(3-chloro-2-fluorophenyl)-1H-1,2,3-triazole-4-carbonyl)-5-(3-methoxyazetidin-1-yl)-1,2,3,4-tetrahydroisoquinoline-1-carboxamido)benzoic acid, TFA salt] the Ki [1] was < 5 nM and the Ki [2, 3] was 12.1 nM.
`O=C(O)c1ccc(NC(=O)[C@H]2c3cccc(N4CCOCC4)c3CCN2C(=O)c2cnn(-c3cccc(Cl)c3F)c2)cc1` [Example 88, (R)-4-(2-(1-(3-Chloro-2-fluorophenyl)-1H-pyrazole-4-carbonyl)-5-morpholino-1,2,3,4-tetrahydroisoquinoline-1-carboxamido)benzoic acid, TFA salt] was tested, and the Ki [1] was 391 nM and the Ki [2, 3] was 2080 nM.
With `O=C(O)c1ccc(NC(=O)[C@@H]2c3cccc(N4CCOCC4)c3CCN2C(=O)c2cnn(-c3cccc(Cl)c3F)c2)cc1` [Example 89, (S)-4-(2-(1-(3-Chloro-2-fluorophenyl)-1H-pyrazole-4-carbonyl)-5-morpholino-1,2,3,4-tetrahydroisoquinoline-1-carboxamido)benzoic acid, TFA salt] the Ki [1] was < 5 nM and the Ki [2, 3] was 11.4 nM.
`O=C(O)c1ccc(NC(=O)[C@@H]2c3cccc(N4CCOCC4)c3CCN2C(=O)c2cn(-c3cccc(Cl)c3F)nn2)cc1` [Example 90, (S)-4-(2-(1-(3-Chloro-2-fluorophenyl)-1H-1,2,3-triazole-4-carbonyl)-5-morpholino-1,2,3,4-tetrahydroisoquinoline-1-carboxamido)benzoic acid, TFA salt] was tested, and the Ki [1] was < 5 nM and the Ki [2, 3] was 5.37 nM.
With `O=C(O)c1ccc(NC(=O)[C@@H]2c3cccc(N4CCOCC4)c3CCN2C(=O)c2cn(-c3cccc(Cl)c3F)cn2)cc1` [Example 91, (S)-4-(2-(1-(3-Chloro-2-fluorophenyl)-1H-imidazole-4-carbonyl)-5-morpholino-1,2,3,4-tetrahydroisoquinoline-1-carboxamido)benzoic acid, TFA salt] the Ki [1] was < 5 nM and the Ki [2, 3] was 3.84 nM.
In the case of `O=C(O)c1ccc(NC(=O)C2c3cccc(N4CCC(N5CCCC5=O)CC4)c3CCN2C(=O)c2cn(-c3cccc(Cl)c3F)cn2)cc1` (centres unmarked) [Example 92, 4-(2-(1-(3-Chloro-2-fluorophenyl)-1H-imidazole-4-carbonyl)-5-(4-(2-oxopyrrolidin-1-yl)piperidin-1-yl)-1,2,3,4-tetrahydroisoquinoline-1-carboxamido)benzoic acid, TFA salt], the Ki [1] is reported as < 5 nM and the Ki [2, 3] is reported as 5.6 nM.
